{
  "source": "patent US20210085789A1",
  "about": "“PHARMACEUTICAL COMPOSITION FOR CANCER TREATMENT” (SEOUL NATIONAL UNIVERSITY R&DB FOUNDATION, priority 2017, published 2021)",
  "test_system": "HeLa cells",
  "assay": "CCK-8 cell viability after light irradiation (dose-dependent PDT effect)",
  "type": "cell-based, human",
  "settings": "660 nm LED 30 mW cm−2 for 10 minutes",
  "protocol": "In order to determine viability of cells treated with FA-MnO2, HeLa cells (1×10^4 cells/well) were prepared in three (3) 96-well plates for 24 hours, and cultured with FA-MnO2 at different concentrations as well as a complete medium. After incubation for 12 hours, the cells were gently washed with 1×PBS and CCK-8 analysis solution as well as a serum-free medium were added thereto for one hour, followed by measuring absorbance at wavelengths of 450 nm and 670 nm using a micro-plate reader (Molecular Devices, Inc., USA).\nNext, in order to determine quantitative cell viability associated with photodynamic effects of FA-MnO2/ZnPc, HeLa cells (1×10^4 cells/well) were seeded on a 96-well plate, incubated for 24 hours, and then, treated with FA-MnO2/ZnPc and ZnPc at various concentrations. After the incubation for 12 hours, each well was irradiated with 660 nm LED (Mikwang Electronics, Korea) at 30 mW cm^−2 for 10 minutes. After additional incubation in a serum-containing medium for 12 hours, analysis of CCK-8 cell vitality was assessed in the same manner as described above.",
  "data": [
    {"smiles": "[Zn+2].c1ccc2c(c1)-c1nc-2nc2[n-]c(nc3nc([n-]c4nc(n1)-c1ccccc1-4)-c1ccccc1-3)c1ccccc21", "note": "[ZnPc, zinc phthalocyanine]", "values": [
      {"measurement": "IC50", "value": "115.1 ± 3.4", "unit": "mg/L"}
    ]}
  ]
}
